Test results reported in publication PMC8672713 (Chemical Science, 2021).

biological target: SARS-CoV-2 Mpro (Severe acute respiratory syndrome coronavirus 2, UniProt P0DTD1); assay type: biochemical

Row | Structure (SMILES) | IC50 [µM]
1 | Cc1cncc(C(=O)NC[C@H]2c3ccccc3CCN2C(=O)c2cccn3nnnc23)c1 [Z4921675438] | 10.8
2 | O=C(NC[C@H](NC(=O)c1cncc2sccc12)c1ccc2ccccc2c1)c1cocn1 [Z4921678803] | 12.1
3 | O=C(NC[C@@H]1CC2(CCC2)CN1C(=O)c1ccc(F)c(O)c1)c1cncc2ccccc12 [Z4927220858] | 11.2
